Laboratory results taken from patent US20260227303A1, “SYSTEMS AND METHODS FOR MEASURING PARTICLE SIZE IN TISSUE AND TURBID MEDIA” (The General Hospital Corporation, priority 2023, published 2026).

Tested on: platelets in whole blood
Assay: Platelet function testing: laser speckle particle sizing of platelet aggregate size in lysed whole blood
Assay type: cell-based, human
Description: To prepare the 4660 μM CPD stock solution, a Plavix tablet (e.g., 75 mg, Bristol-Meyer Squibb) was crushed to powder, mixed with 50 ml of deionized water, sonicated for 10 minutes, and incubated at 50° C. in a water bath for 3 minutes. Following institutional review board (IRB) approval, de-identified blood specimens from two patients undergoing routine coagulation testing were collected in 0.105 M sodium citrate vacutainer system (e.g., Becton & Dickinson, Co., Franklin Lakes, NJ, USA) from the MGH special coagulation laboratory. The specimen was divided into four samples of 66 μl. The first sample (control) was mixed with 20 μl of saline. The second sample was mixed 5 μl of saline and 10 μl of LB. The third sample was mixed with 5 μl of saline and 10 μl of LB, and 5 μl ADP stock solution (e.g., 5 μM, Helena Laboratories, Beaumont, TX, USA). Finally, the 4th and last sample was mixed 10 μl of LB 5 μl of ADP and 5 μl of diluted CPD (5 μM). The samples were loaded in imaging chambers and speckle image acquisition started promptly. For each of the specimens, both the parallel and perpendicularly polarized speckle frames were captured for 1 second, at 750 fps.
The third sample entailed 66 μl of whole blood plus 5 μl of PBS, 10 μl of lysis buffer, and 5 μl Adenosine diphosphate (ADP), a platelet agonist to initiate platelet aggregation. […]

Compound | estimated particle size (average radius) (66 μl whole blood + 5 μl PBS/saline + 10 μl RBC lysis buffer + 5 μl ADP, lysed blood without ADP 360 nm, increase likely reflects platelet aggregation) [μm] | estimated particle size (average radius) (66 μl whole blood + 10 μl RBC lysis buffer + 5 μl ADP + 5 μl CPD, reverts to the lysed-blood level (360 nm), potentially indicating disaggregation of platelets) [nm]
Nc1ncnc2c1ncn2[C@@H]1O[C@H](COP(=O)(O)OP(=O)(O)O)[C@@H](O)[C@H]1O [ADP, Adenosine diphosphate] | 1.8 | –
COC(=O)[C@H](c1ccccc1Cl)N1CCc2sccc2C1 [CPD, clopidogrel bisulphate] | – | 367
